Measured values reported in US20230120211A1, “HDAC Degrader” (University of Leicester, priority 2020, published 2023).

How the values were obtained:
HDAC1 = target: T1, HDAC1 (Homo sapiens, UniProt Q13547); test: HDAC1 degradation in HCT116 cells, quantitative western blot; assay type: cell-based; conditions: for Dmax: HCT-116, 24 h, HCT116, screened at 0.1, 1 and 10 μM, maximum degradation irrespective of concentration, read-out: HDAC1 Degrader (% Degradation)
T1 construct: endogenous in cells; host or cells: HCT116
Procedure: (§1) The compounds were screened at 0.1 μM, 1 μM and 10 μM in a HCT116 cell line. The maximum degradation observed irrespective of the concertation was recorded. The screening of the new compounds was done in 6-well plates, 5 mL media, with 400,000 cells per well to increase throughput.
(§2) HCT116 or mES cells were treated 24 hours after seeding. 24 hours post treatment, cells were harvested, lysed in lysis buffer (50 mM Tris-HCl, 150 mM NaCl, 0.5% NP-40, 0.5% Triton X-100) with protease inhibitor (Sigma, P8340), then incubated on ice for 30 minutes, before being centrifuged (18,000 ref, 15 minutes, 4° C.). The supernatant was collected, and protein concentrations quantified via Bradford Assay using Protein Assay Dye Reagent Concentrate (BIO-RAD). For histone extraction, an equal volume of 0.4 N H2SO4 was added to the pellets and the extracts placed at 4° C. overnight. Following overnight incubation, the tubes were centrifuged (18,000 ref, 15 minutes, 4° C.) and then the supernatant (histone extract) collected.
(§3) PageRuler™ Plus Prestained Ladder was used for size standards. After gel electrophoresis at 140V for 75-90 minutes the separated proteins were transferred onto nitrocellulose membrane at 30V for 60 minutes. The membranes were probed with primary antibodies (listed below) for 60-90 minutes. Blots were developed with complimentary IRDye conjugated secondary antibodies and the bands visualised using the Odyssey Infrared Imaging System. Image processing and band intensity quantification was performed using Image Studio Lite.

HDAC2 = target: T2, HDAC2 (Homo sapiens, UniProt Q92769); test: HDAC2 degradation in HCT116 cells, quantitative western blot; assay type: cell-based; conditions: for Dmax: HCT-116, 24 h, read-out: HDAC 2 Degrader (% Degradation); for Dmax / HDAC 2 Degrader (% Degradation): HCT116, screened at 0.1, 1 and 10 μM, maximum degradation irrespective of concentration
T2 construct: endogenous in cells; host or cells: HCT116
Procedure: as §1, §2, §3

HDAC3 = target: T3, HDAC3 (Homo sapiens, UniProt O15379); test: HDAC3 degradation in HCT116 cells, quantitative western blot; assay type: cell-based; conditions: HCT-116, 24 h; HCT116, screened at 0.1, 1 and 10 μM; maximum degradation irrespective of concentration; read-out: HDAC 3 degrader (% Degradation)
T3 construct: endogenous in cells; host or cells: HCT116
Procedure: as §1, §2, §3

CoREST = CoREST (Homo sapiens, UniProt Q13547); test: HDAC inhibition assay, CoREST complex (Table 1, run under different conditions); assay type: biochemical; conditions: Table 1 conditions (differ from FIG. 3)
Procedure: Inhibition tests against LSD1-HDAC-CoREST complex were performed using a two-enzyme fluorescence-based HDAC assay. The inhibitor/PROTACs were dissolved at 50 mM in DMSO, then 1:2 serial dilutions performed using HDAC assay buffer (50 mM Tris pH 7.5, 150 mM NaCl) to afford range of concentrations.
The assays were performed in black 96-well plates with a reaction volume of 50 μL per well. All determinations were performed in triplicate. […] After an incubation of 20 minutes at 37° C. and 150 rpm, deacetylation was stopped by the addition of 50 μL of a developing solution containing trypsin (50 mM Tris pH 7.5, 100 mM NaCl, 10 mg/mL trypsin). […] HDAC Activity was calculated by subtracting the average blank fluorescence from the well fluorescence. Graphpad Prism software was utilised to determine IC50 values.

NuRD = NuRD (Homo sapiens, UniProt Q13547); test: HDAC inhibition assay, NuRD complex (Table 1); assay type: biochemical
MiDAC = MiDAC (Homo sapiens, UniProt Q13547); test: HDAC inhibition assay, MiDAC complex (Table 1); assay type: biochemical
H3K56ac = H3K56ac levels in E14 mouse embryonic stem cells, quantitative western blot; assay type: cell-based; conditions: E14 mES cells, 24 h; CI-994 40 μM, Panobinostat 30 nM
Procedure: The inventors proceeded to assess their compounds effects on HDAC activity in cells.
To examine the ability of PROTACs 1-4 to reduce HDAC1, 2 and 3 activity in cells they began by measuring H3K56ac using quantitative western blotting (see FIG. 3B).
as §2
as §3, with “Western blots were run on NuPAGE™ 4-12% Bis-Tris gels with 20-30 μg of protein or 10 μL of acid-extracted histone loaded per lane, using NuPAGE™ LDS Sample Buffer (4×). PageRuler™” for “PageRuler™”

[1] = HCT116, side by side with PROTAC 4, FIG. 4C

Chain of CoREST (Q13547 whole entry, other chains not shown): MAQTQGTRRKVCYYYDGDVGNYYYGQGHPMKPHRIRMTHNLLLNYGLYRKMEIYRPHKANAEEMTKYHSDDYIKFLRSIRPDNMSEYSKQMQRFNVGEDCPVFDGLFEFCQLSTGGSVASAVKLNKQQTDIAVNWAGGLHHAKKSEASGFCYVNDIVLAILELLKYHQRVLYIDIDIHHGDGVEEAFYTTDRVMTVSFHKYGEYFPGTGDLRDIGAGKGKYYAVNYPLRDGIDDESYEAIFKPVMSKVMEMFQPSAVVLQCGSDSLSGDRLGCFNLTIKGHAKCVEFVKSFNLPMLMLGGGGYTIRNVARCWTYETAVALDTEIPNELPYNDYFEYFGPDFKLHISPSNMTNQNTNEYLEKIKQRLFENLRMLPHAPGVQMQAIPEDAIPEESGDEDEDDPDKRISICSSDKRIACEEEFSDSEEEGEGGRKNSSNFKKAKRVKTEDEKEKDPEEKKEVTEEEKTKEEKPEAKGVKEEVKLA
Chain of CoREST (Q9UKL0 86-485 partner limits assumed, other chains not shown): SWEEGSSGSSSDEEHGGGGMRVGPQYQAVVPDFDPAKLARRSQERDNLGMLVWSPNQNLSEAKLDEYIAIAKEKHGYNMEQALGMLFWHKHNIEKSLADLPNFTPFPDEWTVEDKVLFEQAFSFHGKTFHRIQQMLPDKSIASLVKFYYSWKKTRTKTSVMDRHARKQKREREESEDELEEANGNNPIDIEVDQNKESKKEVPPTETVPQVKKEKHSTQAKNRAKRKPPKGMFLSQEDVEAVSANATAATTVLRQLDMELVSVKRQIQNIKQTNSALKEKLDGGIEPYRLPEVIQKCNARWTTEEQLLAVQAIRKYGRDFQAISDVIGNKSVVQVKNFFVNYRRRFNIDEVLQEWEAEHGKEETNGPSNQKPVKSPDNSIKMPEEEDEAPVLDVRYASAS
T1 sequence (Q13547 whole entry): as the sequence (Q13547 whole entry, other chains not shown) above
Chain of NuRD (Q13547 whole entry): as the sequence (Q13547 whole entry, other chains not shown) above
Chain of NuRD (Q13330 162-546 partner limits assumed): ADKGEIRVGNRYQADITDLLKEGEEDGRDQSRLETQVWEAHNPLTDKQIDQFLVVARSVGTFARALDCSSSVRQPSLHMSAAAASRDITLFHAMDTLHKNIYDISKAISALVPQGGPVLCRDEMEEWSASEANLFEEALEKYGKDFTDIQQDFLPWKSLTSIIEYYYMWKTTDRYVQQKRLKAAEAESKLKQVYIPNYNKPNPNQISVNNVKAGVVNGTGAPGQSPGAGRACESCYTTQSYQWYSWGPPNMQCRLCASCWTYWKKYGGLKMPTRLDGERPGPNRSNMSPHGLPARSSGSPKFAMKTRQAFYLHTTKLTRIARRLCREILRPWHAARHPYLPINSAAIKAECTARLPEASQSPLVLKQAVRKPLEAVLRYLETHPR
Chain of NuRD (Q09028 whole entry partner): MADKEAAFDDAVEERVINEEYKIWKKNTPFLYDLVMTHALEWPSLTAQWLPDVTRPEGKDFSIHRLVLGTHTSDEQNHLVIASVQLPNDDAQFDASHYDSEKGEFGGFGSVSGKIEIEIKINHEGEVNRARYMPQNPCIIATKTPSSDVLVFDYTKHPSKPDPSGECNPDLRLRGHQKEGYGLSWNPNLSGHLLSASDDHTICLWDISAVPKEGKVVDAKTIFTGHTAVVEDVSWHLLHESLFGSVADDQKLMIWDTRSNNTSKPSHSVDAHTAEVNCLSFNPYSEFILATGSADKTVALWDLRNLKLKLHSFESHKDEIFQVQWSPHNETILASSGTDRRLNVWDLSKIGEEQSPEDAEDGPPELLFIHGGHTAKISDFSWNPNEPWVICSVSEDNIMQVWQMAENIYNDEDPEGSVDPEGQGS
T2 sequence (Q92769 whole entry): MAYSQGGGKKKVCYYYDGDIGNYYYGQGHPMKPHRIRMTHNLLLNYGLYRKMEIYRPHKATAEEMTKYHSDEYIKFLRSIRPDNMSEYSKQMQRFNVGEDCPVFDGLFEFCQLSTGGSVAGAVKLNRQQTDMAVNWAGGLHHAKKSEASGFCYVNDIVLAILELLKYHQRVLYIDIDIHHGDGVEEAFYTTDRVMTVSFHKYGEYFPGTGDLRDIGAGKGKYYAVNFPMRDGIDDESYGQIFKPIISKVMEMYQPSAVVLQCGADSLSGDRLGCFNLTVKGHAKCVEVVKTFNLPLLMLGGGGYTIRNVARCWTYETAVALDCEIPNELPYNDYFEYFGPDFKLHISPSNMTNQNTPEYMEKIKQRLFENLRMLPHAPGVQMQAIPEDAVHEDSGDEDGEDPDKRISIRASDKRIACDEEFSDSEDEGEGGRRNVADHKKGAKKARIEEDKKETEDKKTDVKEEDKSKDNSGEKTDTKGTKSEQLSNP
T3 sequence (O15379 whole entry): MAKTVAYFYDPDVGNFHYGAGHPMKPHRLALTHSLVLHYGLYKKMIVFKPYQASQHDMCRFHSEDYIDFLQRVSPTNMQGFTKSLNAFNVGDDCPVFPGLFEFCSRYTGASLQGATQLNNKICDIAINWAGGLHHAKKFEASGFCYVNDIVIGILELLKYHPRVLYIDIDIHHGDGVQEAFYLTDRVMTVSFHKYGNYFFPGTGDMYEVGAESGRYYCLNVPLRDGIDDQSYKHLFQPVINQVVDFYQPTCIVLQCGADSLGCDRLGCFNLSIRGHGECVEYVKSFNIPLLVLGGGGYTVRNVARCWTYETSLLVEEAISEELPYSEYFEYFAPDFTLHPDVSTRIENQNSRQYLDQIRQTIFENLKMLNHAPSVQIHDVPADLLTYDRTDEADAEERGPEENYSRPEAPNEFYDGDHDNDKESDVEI
Chain of MiDAC (Q13547 whole entry): as the sequence (Q13547 whole entry, other chains not shown) above
Chain of MiDAC (Q6PJG2 628-887 partner limits assumed): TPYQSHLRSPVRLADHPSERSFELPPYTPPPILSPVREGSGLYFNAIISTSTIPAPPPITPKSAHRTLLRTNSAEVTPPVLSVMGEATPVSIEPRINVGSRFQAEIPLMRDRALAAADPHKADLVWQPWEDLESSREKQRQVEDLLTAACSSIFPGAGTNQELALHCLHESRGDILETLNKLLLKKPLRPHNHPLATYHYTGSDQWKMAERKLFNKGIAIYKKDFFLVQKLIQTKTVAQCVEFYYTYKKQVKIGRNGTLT
Chain of MiDAC (Q9H147 whole entry partner): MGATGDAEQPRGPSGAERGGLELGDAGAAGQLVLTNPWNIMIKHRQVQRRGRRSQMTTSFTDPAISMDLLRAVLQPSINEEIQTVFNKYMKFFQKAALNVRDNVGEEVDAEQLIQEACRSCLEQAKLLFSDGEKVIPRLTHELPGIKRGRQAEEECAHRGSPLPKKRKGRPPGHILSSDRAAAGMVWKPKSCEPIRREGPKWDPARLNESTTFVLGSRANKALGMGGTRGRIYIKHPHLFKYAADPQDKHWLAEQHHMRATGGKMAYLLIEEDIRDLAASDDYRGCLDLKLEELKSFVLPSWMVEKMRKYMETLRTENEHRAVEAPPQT

SMILES | Dmax (HDAC1) | Dmax (HDAC2) | Dmax (HDAC3) | further results
CN[C@@H](C)C(=O)N[C@H](C(=O)N1C[C@@H](NC(=O)CCCCCCCCCCC(=O)Nc2ccc(C(=O)Nc3ccccc3N)cc2)C[C@H]1C(=O)N[C@@H]1CCCc2ccccc21)C1CCCCC1 [PROTAC26, N^1-(4-((2-aminophenyl)carbamoyl)phenyl)-N^12-((3S,5S)-1-((S)-2-cyclohexyl-2-((S)-2-(methylamino)propanamido)acetyl)-5-(((R)-1,2,3,4-tetrahydronaphthalen-1-yl)carbamoyl)pyrrolidin-3-yl) dodecanediamide] | 88% | 58% | 88% | 
Cc1ncsc1-c1ccc(CNC(=O)[C@@H]2C[C@@H](O)CN2C(=O)[C@@H](NC(=O)CCCCCCCC(=O)Nc2ccc(C(=O)Nc3ccccc3N)cc2)C(C)(C)C)cc1 [PROTAC6, N1-(4-((2-aminophenyl)carbamoyl)phenyl)-N9-((S)-1-((2S,4R)-4-hydroxy-2-((4-(4-methylthiazol-5-yl)benzyl)carbamoyl)pyrrolidin-1-yl)-3,3-dimethyl-1-oxobutan-2-yl)nonanediamide] | 60% |  |  | IC50 (CoREST): 0.244 µM; IC50 (NuRD): 0.338 µM; IC50 (MiDAC): 1.69 µM; HDAC 2 Degrader (% Degradation) (HDAC2): partial
Cc1ncsc1-c1ccc(CNC(=O)[C@@H]2C[C@@H](O)CN2C(=O)[C@@H](NC(=O)COCCOCCOCC(=O)Nc2ccc(C(=O)Nc3cc(-c4cccs4)ccc3N)cc2)C(C)(C)C)cc1 [PROTAC22, (2S,4R)-1-((S)-14-((4-((2-amino-5-(thiophen-2-yl)phenyl)carbamoyl)phenyl)amino)-2-(tert-butyl)-4,14-dioxo-6,9,12-trioxa-3-azatetradecanoyl)-4-hydroxy-N-(4-(4-methylthiazol-5-yl)benzyl)pyrrolidine-2-carboxamide] | 32% |  | 32% | HDAC 2 Degrader (% Degradation) (HDAC2): No
Cc1ncsc1-c1ccc(CNC(=O)[C@@H]2C[C@@H](O)CN2C(=O)[C@@H](NC(=O)COCCCCCCOCC(=O)Nc2ccc(C(=O)Nc3ccccc3N)cc2)C(C)(C)C)cc1 [PROTAC12, (2S,4R)-1-((S)-2-(2-((6-(2-((4-((2-aminophenyl)carbamoyl)phenyl)amino)-2-oxoethoxy)hexyl)oxy)acetamido)-3,3-dimethylbutanoyl)-4-hydroxy-N-(4-(4-methylthiazol-5-yl)benzyl)pyrrolidine-2-carboxamide] | 42% | 46% | 32% | IC50 (CoREST): 7.17 µM; IC50 (NuRD): 8.13 µM; IC50 (MiDAC): 5.15 µM
CC(=O)N[C@H](C(=O)N1C[C@H](O)C[C@H]1C(=O)NCc1ccc(-c2scnc2C)cc1OCCCCCCCCCCCC(=O)Nc1ccc(C(=O)Nc2ccccc2N)cc1)C(C)(C)C [PROTAC35, (2S,4R)-1-((S)-2-acetamido-3,3-dimethylbutanoyl)-N-(2-((12-((4-((2-aminophenyl)carbamoyl)phenyl)amino)-12-oxododecyl)oxy)-4-(4-methylthiazol-5-yl)benzyl)-4-hydroxypyrrolidine-2-carboxamide] | 61% | 49% | 38% | 
Cc1ncsc1-c1ccc(CNC(=O)[C@@H]2C[C@@H](O)CN2C(=O)[C@@H](NC(=O)COCCCCCCCCCOCC(=O)Nc2ccc(C(=O)Nc3ccccc3N)cc2)C(C)(C)C)cc1 [PROTAC16, (2S,4R)-1-((S)-2-(2-((9-(2-((4-((2-aminophenyl)carbamoyl)phenyl)amino)-2-oxoethoxy)nonyl)oxy)acetamido)-3,3-dimethylbutanoyl)-4-hydroxy-N-(4-(4-methylthiazol-5-yl)benzyl)pyrrolidine-2-carboxamide] | 67% | 58% | 67% | IC50 (CoREST): 4.13 µM; IC50 (NuRD): 11.8 µM
Nc1ccccc1NC(=O)c1ccc(NC(=O)CCCCCCCCCCCNC(=O)COc2cccc3c2C(=O)N(C2CCC(=O)NC2=O)C3=O)cc1 (centres unmarked) [PROTAC2, N-(2-aminophenyl)-4-(12-(2-((2-(2,6-dioxopiperidin-3-yl)-1,3-dioxoisoindolin-4-yl)oxy)acetamido)dodecanamido)benzamide] |  |  |  | H3K56 acetylation level (H3K56ac): increase in acetylation to similar levels
Cc1ncsc1-c1ccc(CNC(=O)[C@@H]2C[C@@H](O)CN2C(=O)[C@@H](NC(=O)C2(F)CC2)C(C)(C)C)c(OCCCCCCCCCCCC(=O)Nc2ccc(C(=O)Nc3ccccc3N)cc2)c1 [PROTAC36, (2S,4R)-N-(2-((12-((4-((2-aminophenyl)carbamoyl)phenyl)amino)-12-oxododecyl)oxy)-4-(4-methylthiazol-5-yl)benzyl)-1-((S)-2-(1-fluorocyclopropane-1-carboxamido)-3,3-dimethylbutanoyl)-4-hydroxypyrrolidine-2-carboxamide] | 51% | 28% | 69% | 
CN[C@@H](C)C(=O)N[C@H](C(=O)N1CCC[C@H]1c1nc(C(=O)c2cccc(OCCCCCCCCCCCC(=O)Nc3ccc(C(=O)Nc4ccccc4N)cc3)c2)cs1)C1CCCCC1 [PROTAC37, N-(2-aminophenyl)-4-(12-(3-(2-((S)-1-((S)-2-cyclohexyl-2-((S)-2-(methylamino)propanamido)acetyl)pyrrolidin-2-yl)thiazole-4-carbonyl)phenoxy)dodecanamido)benzamide] | 38% | 16% | 37% | 
Cc1ncsc1-c1ccc(CNC(=O)[C@@H]2C[C@@H](O)CN2C(=O)[C@@H](NC(=O)CCCCCCCn2cc(COC(=O)NCc3ccc(C(=O)Nc4ccccc4N)cc3)nn2)C(C)(C)C)cc1 [PROTAC29, (1-(8-(((S)-1-((2S,4R)-4-hydroxy-2-((4-(4-methylthiazol-5-yl)benzyl)carbamoyl)pyrrolidin-1-yl)-3,3-dimethyl-1-oxobutan-2-yl)amino)-8-oxooctyl)-1H-1,2,3-triazol-4-yl)methyl(4-((2-aminophenyl)carbamoyl)benzyl)carbamate] | 39% | 23% | 64% | 
Cc1ncsc1-c1ccc(CNC(=O)[C@@H]2C[C@H](O)CN2C(=O)[C@@H](NC(=O)CCCCCCCCCCC(=O)Nc2ccc(C(=O)Nc3ccccc3N)cc2)C(C)(C)C)cc1 [NC-PROTAC4, N1-(4-((2-aminophenyl)carbamoyl)phenyl)-N12-((S)-1-((2S,4S)-4-hydroxy-2-((4-(4-methylthiazol-5-yl)benzyl)carbamoyl)pyrrolidin-1-yl)-3,3-dimethyl-1-oxobutan-2-yl)dodecanediamide] |  |  |  | HDAC1 degradation (HDAC1; [1]): No degradation; HDAC2 degradation (HDAC2; [1]): No degradation
CC(=O)Nc1ccc(C(=O)Nc2ccccc2N)cc1 [CI-994, 4-acetamido-N-(2-aminophenyl)benzamide, reference compound] |  |  |  | H3K56 acetylation level (H3K56ac): increased
Cc1ncsc1-c1ccc(CNC(=O)[C@@H]2C[C@@H](O)CN2C(=O)[C@@H](NC(=O)CCCCCCCCCCCCC(=O)Nc2ccc(C(=O)Nc3ccccc3N)cc2)C(C)(C)C)cc1 [PROTAC34, N1-(4-((2-aminophenyl)carbamoyl)phenyl)-N14-((S)-1-((2S,4R)-4-hydroxy-2-((4-(4-methylthiazol-5-yl)benzyl)carbamoyl)pyrrolidin-1-yl)-3,3-dimethyl-1-oxobutan-2-yl)tetradecanediamide] | 47% | 44% | 30% | 
